IC50 data for 15 compounds are collected here from patent US10669272B2, “Substituted naphthyridinone compounds useful as T cell activators” (BRISTOL-MYERS SQUIBB COMPANY, priority 2018, dated 2020).

Structures are written as SMILES. Like-named read-outs stand apart in the source and are kept apart here.

One assay addresses T1, human DGKα (Homo sapiens, UniProt P23743).
T1 construct: TVMV protease cleavage site (C); Hexa-His (C); made in house; host or cells: Sf9 insect cells (baculovirus, Bac-to-Bac)
Kind of assay: DGKα LIPGLO assay (extruded liposome substrate), in vitro DGK inhibition. It is filed as biochemical. Conditions: read-out: DGKa LIPGLO IC50.

For a further assay, the target named is T2, human DGKζ (Homo sapiens, UniProt Q13574).
T2 construct: TVMV protease cleavage site (C); Hexa-His (C); made in house; host or cells: Sf9 insect cells (baculovirus, Bac-to-Bac)
Kind of assay: DGKζ LIPGLO assay (extruded liposome substrate), in vitro DGK inhibition. It is filed as biochemical. Conditions: read-out: DGKz LIPGLO IC50.

T2 sequence (Q13574 with tags, fused parts or gaps isoform Q13574-4): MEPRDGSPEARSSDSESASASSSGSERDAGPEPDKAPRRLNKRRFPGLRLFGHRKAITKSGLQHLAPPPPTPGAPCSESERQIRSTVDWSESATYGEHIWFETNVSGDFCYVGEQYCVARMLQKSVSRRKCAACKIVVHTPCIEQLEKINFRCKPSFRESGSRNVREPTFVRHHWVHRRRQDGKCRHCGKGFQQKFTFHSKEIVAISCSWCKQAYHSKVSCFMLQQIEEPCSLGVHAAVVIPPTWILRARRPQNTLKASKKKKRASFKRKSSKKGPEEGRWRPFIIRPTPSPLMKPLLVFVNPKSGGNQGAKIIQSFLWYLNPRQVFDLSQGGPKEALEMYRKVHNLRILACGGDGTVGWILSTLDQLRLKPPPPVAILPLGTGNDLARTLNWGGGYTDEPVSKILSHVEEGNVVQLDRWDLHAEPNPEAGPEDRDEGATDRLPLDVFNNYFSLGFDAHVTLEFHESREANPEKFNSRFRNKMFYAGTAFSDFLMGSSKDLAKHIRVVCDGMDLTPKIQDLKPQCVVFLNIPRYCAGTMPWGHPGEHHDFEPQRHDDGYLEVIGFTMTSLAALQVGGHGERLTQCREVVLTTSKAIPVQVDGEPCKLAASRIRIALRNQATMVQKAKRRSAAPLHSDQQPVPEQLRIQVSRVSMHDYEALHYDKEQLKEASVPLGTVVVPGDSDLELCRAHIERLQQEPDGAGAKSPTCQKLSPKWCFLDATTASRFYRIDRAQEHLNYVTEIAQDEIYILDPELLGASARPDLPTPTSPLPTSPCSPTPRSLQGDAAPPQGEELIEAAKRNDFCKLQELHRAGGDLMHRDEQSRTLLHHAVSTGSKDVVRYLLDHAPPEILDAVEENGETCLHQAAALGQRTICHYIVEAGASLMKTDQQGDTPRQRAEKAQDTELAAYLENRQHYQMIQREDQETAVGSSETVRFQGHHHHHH
T1 sequence (P23743 with tags, fused parts or gaps): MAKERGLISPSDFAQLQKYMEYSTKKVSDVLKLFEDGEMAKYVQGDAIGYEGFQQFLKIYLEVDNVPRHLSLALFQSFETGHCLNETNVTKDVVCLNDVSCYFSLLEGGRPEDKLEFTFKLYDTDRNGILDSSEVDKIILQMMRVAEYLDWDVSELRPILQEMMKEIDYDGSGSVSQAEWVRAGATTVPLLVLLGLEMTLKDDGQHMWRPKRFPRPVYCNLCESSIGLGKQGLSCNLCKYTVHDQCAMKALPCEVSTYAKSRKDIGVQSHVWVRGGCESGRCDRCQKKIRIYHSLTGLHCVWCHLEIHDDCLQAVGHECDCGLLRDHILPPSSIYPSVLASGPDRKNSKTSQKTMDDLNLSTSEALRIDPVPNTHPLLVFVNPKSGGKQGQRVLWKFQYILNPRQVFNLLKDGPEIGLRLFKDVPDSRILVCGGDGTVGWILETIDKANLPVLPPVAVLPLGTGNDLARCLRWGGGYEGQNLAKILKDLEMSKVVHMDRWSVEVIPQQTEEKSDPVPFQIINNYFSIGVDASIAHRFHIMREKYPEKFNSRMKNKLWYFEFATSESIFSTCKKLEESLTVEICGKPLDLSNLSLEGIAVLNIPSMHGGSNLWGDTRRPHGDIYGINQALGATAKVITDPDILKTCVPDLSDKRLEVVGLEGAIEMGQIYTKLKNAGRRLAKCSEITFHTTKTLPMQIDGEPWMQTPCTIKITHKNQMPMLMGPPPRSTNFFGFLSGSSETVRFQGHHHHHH

As usually defined, the IC50 is the concentration that gives 50% inhibition. In the case of `C[C@@H]1CN(c2cc(=O)n(C)c3ccc(C#N)nc23)[C@@H](C)CN1Cc1cccc2c1OCCN2C(=O)OC(C)(C)C` [Example 630], the IC50 on human DGKα (liposome (LIPGLO) assay) came to 0.39 µM; at human DGKζ (liposome (LIPGLO) assay), 13000 nM.

On to `Cn1c(=O)cc(N2CCN(C(c3ccc(F)cc3)c3ccc(F)cc3)C(COC(F)F)C2)c2nc(C#N)ccc21` (single isomer, unassigned) [Example 1187], for which the IC50 on human DGKα (liposome (LIPGLO) assay) was found to be 150 µM; at human DGKζ (liposome (LIPGLO) assay), 2900 nM.

As for `Cc1ncc(C(c2ccc(Cl)cc2)N2CCN(c3c(C#N)c(=O)n(C)c4ccc(C#N)nc34)C[C@H]2C)cn1` (stereo partly drawn) [Example 314, 8-((3R)-4-((4-chlorophenyl)(2-methylpyrimidin-5-yl)methyl)-3-methylpiperazin-1-yl)-5-methyl-6-oxo-5,6-dihydro-1,5-naphthyridine-2,7-dicarbonitrile], the IC50 on human DGKα (liposome (LIPGLO) assay) was 8.5 µM; at human DGKζ (liposome (LIPGLO) assay) it was 31000 nM.

`CC[C@H]1CN(C(c2ccc(F)cc2)c2nc(C3CC3)no2)[C@H](CC)CN1c1cc(=O)n(C)c2ccc(C#N)nc12` (stereo partly drawn) [Example 1064]: the IC50 was found to be 0.08 µM on human DGKα (liposome (LIPGLO) assay) and 39 nM on human DGKζ (liposome (LIPGLO) assay).

Regarding `CC[C@H]1CN(C(c2ccc(F)cc2)c2csc(C(F)(F)F)n2)[C@H](CC)CN1c1cc(=O)n(C)c2ccc(C#N)nc12` (single isomer, unassigned) [Example 1361], the IC50 at human DGKα (liposome (LIPGLO) assay) was 0.011 µM; at human DGKζ (liposome (LIPGLO) assay), 11 nM.

As to `C[C@@H]1CN(C(c2ccc(F)cc2)c2ccc(C#N)cc2)[C@@H](CO)CN1c1cc(=O)n(C)c2ccc(C#N)nc12` (single isomer, unassigned) [Example 1176], the half-inhibitory concentration (IC50) at human DGKα (liposome (LIPGLO) assay) was determined as 12 µM; at human DGKζ (liposome (LIPGLO) assay) it was 2900 nM.

For the compound `C[C@H]1CN(C(c2ccc(F)cc2)c2ccc(F)cc2)[C@H](CO)CN1c1cc(=O)n(C)c2ccc(C#N)nc12` [Example 1151], the IC50 stood at 9.6 µM at human DGKα (liposome (LIPGLO) assay) and 22000 nM on human DGKζ (liposome (LIPGLO) assay).

As for `Cn1c(=O)cc(N2CC(C3CC3)N(C(c3ccc(F)cc3)c3ccc(F)cc3)CC2C2CC2)c2nc(C#N)ccc21` (single isomer, unassigned) [Example 153, 8-(4-(bis(4-fluorophenyl)methyl)-2,5-dicyclopropylpiperazin-1-yl)-5-methyl-6-oxo-5,6-dihydro-1,5-naphthyridine-2-carbonitrile], the IC50 worked out at 240 µM at human DGKα (liposome (LIPGLO) assay) and 240000 nM on human DGKζ (liposome (LIPGLO) assay).

Consider `C[C@@H]1CN(C(c2ccc(F)cc2)c2ccc(C#N)cc2)[C@@H](CO)CN1c1cc(=O)n(C)c2ccc(C#N)nc12` (single isomer, unassigned) [Example 1177], for which the figures for the IC50 at human DGKα (liposome (LIPGLO) assay) and on human DGKζ (liposome (LIPGLO) assay) were 10 µM and 620 nM, respectively.

`Cc1cc(C(c2ccc(F)cc2)N2C[C@H](C)N(c3c(C#N)c(=O)n(C)c4ccc(C#N)nc34)C[C@H]2C)no1` (single isomer, unassigned) [Example 865]: the IC50 amounted to 18 µM at human DGKα (DGKα liposome (LIPGLO) assay) and 14000 nM on human DGKζ (DGKζ liposome (LIPGLO) assay).

For `CC[C@@H]1CN(c2cc(=O)n(C)c3ccc(C#N)nc23)[C@@H](C)CN1C(CC1CCCCC1)c1ccc(OC(F)(F)F)cc1` (stereo partly drawn) [Example 1195], the IC50 was determined as 0.83 µM on human DGKα (liposome (LIPGLO) assay) and 280 nM at human DGKζ (liposome (LIPGLO) assay).

Regarding `C[C@@H]1CN(c2c(C#N)c(=O)n(C)c3ccc(C#N)nc23)CCN1C(c1ccc(F)cc1)c1cccc2c1OC(C)(C)C2` (single isomer, unassigned) [Example 935], the figures for the IC50 on human DGKα (DGKα liposome (LIPGLO) assay) and at human DGKζ (DGKζ liposome (LIPGLO) assay) were 1.9 µM and 1800 nM, respectively.

As to `CC[C@H]1CN(C(c2ccc(F)cc2)c2nc(C3CC3)no2)[C@H](CC)CN1c1cc(=O)n(C)c2ccc(C#N)nc12` (stereo partly drawn) [Example 1065], the IC50 on human DGKζ (liposome (LIPGLO) assay) amounted to 31 nM.

Consider `Cc1nnc(C(C)N2C[C@H](C)N(c3cc(=O)n(C)c4ccc(C#N)nc34)C[C@H]2C)o1` (stereo partly drawn) [Example 1437], for which the IC50 on human DGKα (liposome (LIPGLO) assay) was 150 µM.

Regarding `C[C@@H]1CN(c2cc(=O)n(C)c3ccc(C#N)nc23)[C@@H](C)CN1Cc1cn(C)nn1` [Example 1435], the IC50 on human DGKα (liposome (LIPGLO) assay) was found to be 160 µM.
